Reference: patent publication EP0538689A1, “Substituted 2,3-dihydropyrans, method for their preparation and their use as medicaments” (BAYER AG, priority 1991, dated 1993)
Where a name gives a salt, the structure may show the parent alone.

Tested on: C. albicans
Test: Mouse candidosis model, antimycotic in vivo efficacy
Set-up: species or system Männliche CF₁-SPF-Mäuse
Conditions: mice infected i.v. with 1-3 x 10⁶ Sprosszellen von C. albicans, surviving/total animals
Procedure: Die erfindungsgemäßen Verbindungen wurden in den Applikationsarten i.v., s.c. und orale Gabe am Modell der Mäuse-Candidose auf ihre antimykotische in vivo-Wirksamkeit geprüft: Männliche CF₁-SPF-Mäuse wurden mit 1-3 x 10⁶ Sprosszellen von C. albicans pro Tier durch Injektion der Keimsuspension in phys. NaCl-Lösung (0,2 ml/Tier) in die Schwanzvene infiziert. Nicht behandelte Kontrolltiere entwickeln unter diesen Infektionsbedingungen eine Nierencandidose und sterben zu 95-100% der eingesetzten Tiere innerhalb 6 Tagen p.i. an dieser Infektion. Wurden infizierte Tiere täglich 2 mal, beginnend mit dem Tag der Infektion, mit den erfindungsgemäßen Verbindungen oral oder parenteral in Dosen 2 x 25 bis 2 x 50 mg/kg Körpergewicht über 2 - 5 Tage behandelt, so überleben 60-90% der Tiere die Infektion in gutem Zustand. Die C.albicans-Keimzahlen in den Nieren der infizierten und behandelten Tiere liegen am 4. Tag p.i. durchschnittlich um 2 Zehnerpotenzen unter denen von unbehandelten, infizierten Kontrolltieren. Tabelle A

Row | SMILES | Zahl der überl. Tiere (Dosis 2 × 50 mg/kg/d, App. po) | Zahl der überl. Tiere (Dosis 2 × 25 mg/kg/d, App. sc)
1 | COC(=O)[C@H]1OCC=C[C@H]1N [Beispiel 1, (2S,3R)-3-Amino-2,3-dihydro-6H-pyran-2-carbonsäuremethylester Hydrochlorid] | 7/10 | 
2 | N[C@H]1C=CCO[C@H]1C(=O)O [Beispiel 17, (2R,3S)-3-Amino-2,3-dihydro-6H-pyran-2-carbonsäure-hydrochlorid] |  | 3/10
3 | COC(=O)[C@H]1OCC=C[C@H]1NC(=O)OC(C)(C)C [Beispiel VII] | 8/10 | 
